From publication PMC2362940 (British Journal of Cancer, 1999)
“Also recorded” adds a separate entry of the source. Read-outs that look alike come from different tables or passages of the source.

Legend:
MCF-7 WT cells [1] = experiment: cells; details: Homo sapiens, MCF7, 72 h
P-gp [2] = target: P-gp (Homo sapiens, UniProt P08183); experiment: in vitro; details: membrane preparations of MES-Dx5 cells (P-gp-expressing), MES-Dx5 membranes
MES-Dx5 cells [3] = experiment: MTT dye-based cytotoxicity assay, 72-h exposure, P-gp-expressing MES-Dx5 cells; assay type: cell-based, human; details: for EC50: Homo sapiens, read-out: EC50 of cytotoxic drug in MES-Dx5 cells; for EC50 / Resistance factor (RF) of MES-Dx5 relative to MES-SA cells: MTT
MCF-7/ADR cells = experiment: MTT cytotoxicity of taxol with P-gp inhibitors at 10% or 50% FCS in MCF-7/ADR cells; assay type: cell-based, human; details: for EC50: Homo sapiens, NCI/ADR-RES; for Resistance of MCF-7/ADR cells: MA Russell and DR Ferry, unpublished data
MES-SA cells [4] = experiment: MTT dye-based cytotoxicity assay, 72-h exposure, parental MES-SA cells; details: Homo sapiens, read-out: EC50 of cytotoxic drug in MES-SA cells
MCF-7 WT cells [5] = system: MCF-7 WT cells
[6] = target: T1, P-gp in MES-Dx5 membranes (Homo sapiens, UniProt P08183); experiment: biochemical
[7] = target: T1, P-gp in MES-Dx5 membranes
MES-Dx5 cells [8] = experiment: Reversal of MES-Dx5 resistance to cytotoxics by P-gp inhibitor (MTT assay, % maximal shift); assay type: cell-based, human; details: for EC50: Homo sapiens, MES-Dx5, MTT 72 h
[9] = system: P388/Dox leukaemia or C26 colon carcinoma; parameters: method as in Hyafil et al, 1993; details: single dose of GF120918; ref Hyafil et al, 1993; cited from earlier work
COR-L23 R = experiment: Sensitization of MRP1-expressing COR-L23 R cells to doxorubicin; assay type: cell-based; details: 1 M (µM) GF120918, unpublished data
P-gp [10] = experiment: Radiolabelled drug accumulation assay in MES-Dx5 cells; assay type: cell-based, human; details: human, MES-Dx5 cells (P-gp-expressing); read-out: EC50 for reversal of the accumulation deficit, range over all three radiolabelled cytotoxics
MES-Dx5 cells [11] = experiment: as above; assay type: cell-based, human; details: for EC50: Homo sapiens, MES-Dx5, 4 h; for Accumulation deficit of MES-Dx5 relative to parental MES-SA cells: steady state
P-gp [12] = system: P-gp; parameters: method as in Hyafil et al, 1993; details: ref Hyafil et al, 1993; cited from earlier work
MES-SA cells [13] = experiment: Radiolabelled drug accumulation assay in MES-SA cells; assay type: cell-based, human; details: data not shown
[14] = inhibition of [3H]-vinblastine binding, single representative experiment, Figure 7B, 5 nM [3H]-vinblastine

T1 sequence (P08183 whole entry): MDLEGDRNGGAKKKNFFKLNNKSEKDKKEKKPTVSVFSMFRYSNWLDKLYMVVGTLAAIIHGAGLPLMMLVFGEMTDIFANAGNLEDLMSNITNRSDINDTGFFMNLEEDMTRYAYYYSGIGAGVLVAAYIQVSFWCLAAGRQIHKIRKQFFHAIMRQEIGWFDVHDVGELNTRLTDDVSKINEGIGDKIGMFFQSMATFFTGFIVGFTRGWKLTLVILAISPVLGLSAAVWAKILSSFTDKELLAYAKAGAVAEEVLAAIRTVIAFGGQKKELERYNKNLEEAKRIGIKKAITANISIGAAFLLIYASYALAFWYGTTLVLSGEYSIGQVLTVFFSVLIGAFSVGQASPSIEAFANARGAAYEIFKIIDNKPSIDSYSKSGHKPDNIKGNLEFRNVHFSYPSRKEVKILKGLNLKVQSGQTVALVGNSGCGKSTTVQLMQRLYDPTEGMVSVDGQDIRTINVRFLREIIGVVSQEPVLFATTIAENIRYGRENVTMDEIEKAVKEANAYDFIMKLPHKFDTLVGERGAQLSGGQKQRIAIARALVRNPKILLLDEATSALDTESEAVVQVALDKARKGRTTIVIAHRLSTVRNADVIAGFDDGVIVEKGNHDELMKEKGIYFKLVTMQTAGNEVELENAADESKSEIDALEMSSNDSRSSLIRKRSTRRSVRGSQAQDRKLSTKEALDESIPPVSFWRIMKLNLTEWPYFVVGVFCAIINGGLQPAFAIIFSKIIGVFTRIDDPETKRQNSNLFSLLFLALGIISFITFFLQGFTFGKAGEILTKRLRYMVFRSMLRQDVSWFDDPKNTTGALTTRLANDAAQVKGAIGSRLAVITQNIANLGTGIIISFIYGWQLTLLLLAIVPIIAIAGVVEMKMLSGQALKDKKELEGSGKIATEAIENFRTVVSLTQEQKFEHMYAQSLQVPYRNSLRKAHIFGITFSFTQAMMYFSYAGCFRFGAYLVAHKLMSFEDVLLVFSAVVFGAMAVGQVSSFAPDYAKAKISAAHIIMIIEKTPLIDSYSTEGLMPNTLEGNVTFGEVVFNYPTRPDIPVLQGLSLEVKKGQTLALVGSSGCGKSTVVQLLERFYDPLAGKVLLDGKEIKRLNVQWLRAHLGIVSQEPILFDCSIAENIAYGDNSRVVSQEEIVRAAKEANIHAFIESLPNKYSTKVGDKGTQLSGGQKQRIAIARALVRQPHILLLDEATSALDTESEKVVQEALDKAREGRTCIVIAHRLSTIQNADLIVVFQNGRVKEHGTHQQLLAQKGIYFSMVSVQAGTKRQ
P-gp, sequence (P08183 whole entry): as above

Q: For `CC(=O)O[C@H]1C(=O)[C@@]2(C)[C@H]([C@H](OC(=O)c3ccccc3)[C@]3(O)C[C@H](OC(=O)[C@H](O)[C@@H](NC(=O)c4ccccc4)c4ccccc4)C(C)=C1C3(C)C)[C@]1(OC(C)=O)CO[C@@H]1C[C@@H]2O` [taxol], which EC50 (MCF-7 WT cells [1]; read-out: EC50 of taxol without inhibitor, 10% FCS) is on record?
A: 6 nM

Q: And the EC50 (MCF-7 WT cells [1]; read-out: EC50 of taxol without inhibitor, 50% FCS)?
A: 5 nM

Q: And the Ki at 3 h (P-gp [2]; probe [3H]-vinblastine, Ki, inhibition of [3H]-vinblastine binding to P-gp (mean), 3 h, 21C)?
A: 400 ± 140 nM

Q: What about the EC50 (MES-Dx5 cells [3]) of the same compound?
A: 470 nM

Q: And the “Resistance factor (RF) of MES-Dx5 relative to MES-SA cells” value (MES-Dx5 cells [3])?
A: 94 fold

Q: What about the EC50 (MCF-7/ADR cells; read-out: EC50 of taxol without inhibitor, 10% FCS, MCF-7/ADR, MTT 72 h) of the same compound?
A: 8500 nM

Q: What about the EC50 (MCF-7/ADR cells; read-out: EC50 of taxol without inhibitor, 50% FCS, MCF-7/ADR, MTT 72 h) of the same compound?
A: 4600 nM

Q: What about the “Resistance of MCF-7/ADR cells” value (MCF-7/ADR cells) of the same compound?
A: 1000 fold

Q: What about the EC50 (MES-SA cells [4]) of the same compound?
A: 5 nM

Q: What about the “Ratio of EC50s (50% FCS vs 10% FCS), taxol without inhibitor” value (MCF-7 WT cells [5]) of the same compound?
A: 0.84

Q: And the Ki [6, 14]?
A: 96 nM

Q: And the “Maximal displacement of [3H]-vinblastine bound to P-gp” value ([7]; MES-Dx5 membranes, allosteric inhibitor)?
A: 40%

Q: With `CO[C@@H]1[C@H](N(C)C(=O)c2ccccc2)C[C@H]2O[C@]1(C)n1c3ccccc3c3c4c(c5c6ccccc6n2c5c31)C(=O)NC4` [CGP 41251] as the compound, how does the “Ratio of EC50s (50% FCS vs 10% FCS) in presence of P-gp inhibitor” value (MCF-7/ADR cells; MCF-7/ADR, taxol, MTT 72 h) read?
A: 30 fold

Q: For `COC(=O)C1=C(C)NC(C)=C(C(=O)OCCCN2CCC(c3ccccc3)(c3ccccc3)CC2)[C@@H]1c1cccc([N+](=O)[O-])c1` [Dexniguldipine], which “Ratio of EC50s (50% FCS vs 10% FCS) in presence of P-gp inhibitor” value (MCF-7/ADR cells) is on record?
A: 37 fold

Q: With `COc1cccc2c1C(=O)c1c(O)c3c(c(O)c1C2=O)C[C@@](O)(C(=O)CO)C[C@@H]3O[C@H]1C[C@H](N)[C@H](O)[C@H](C)O1` [doxorubicin] as the compound, how does the EC50 (MES-Dx5 cells [3]) read?
A: 534 nM

Q: What about the “Resistance of MCF-7/ADR cells” value (MCF-7/ADR cells) of the same compound?
A: 200 fold

Q: And the EC50 (MES-SA cells [4])?
A: 58 nM

Q: And the Ki ([6]; inhibition of [3H]-vinblastine binding to P-gp (mean), MES-Dx5 membranes, 21C)?
A: 6940 ± 2100 nM

Q: And the Ki [6, 14]?
A: 112000 nM

Q: Which EC50 (MES-Dx5 cells [3]) does the source give for `COc1cc([C@@H]2c3cc4c(cc3[C@@H](O[C@@H]3O[C@@H]5CO[C@@H](C)O[C@H]5[C@H](O)[C@H]3O)[C@H]3COC(=O)[C@H]23)OCO4)cc(OC)c1O` [etoposide] here?
A: 6850 nM

Q: And the EC50 (MES-SA cells [4])?
A: 3000 nM

Q: For `C/C=C/C[C@@H](C)C(=O)[C@H]1C(=O)N[C@@H](C(C)C)C(=O)N(C)CC(=O)N(C)[C@@H](CC(C)C)C(=O)N[C@@H](C(C)C)C(=O)N(C)[C@@H](CC(C)C)C(=O)N[C@@H](C)C(=O)N[C@H](C)C(=O)N(C)[C@@H](CC(C)C)C(=O)N(C)[C@@H](CC(C)C)C(=O)N(C)[C@@H](C(C)C)C(=O)N1C` [PSC 833], which “Ratio of EC50s (50% FCS vs 10% FCS) in presence of P-gp inhibitor” value (MCF-7/ADR cells; MCF-7/ADR, taxol, MTT 72 h) is on record?
A: 19 fold

Q: With `CC[C@]1(O)C[C@@H]2CN(CCc3c([nH]c4ccccc34)[C@@](C(=O)OC)(c3cc4c(cc3OC)N(C)[C@H]3[C@@](O)(C(=O)OC)[C@H](OC(C)=O)[C@]5(CC)C=CCN6CC[C@]43[C@@H]65)C2)C1` [[3 H]-vinblastine] as the compound, how does the Kd (P-gp [2]; KD of [3H]-vinblastine binding, saturation analysis (mean)) read?
A: 7.8 ± 1.4 nM

Q: And the “Bmax of [3H]-vinblastine binding in the presence of ATP and MgCl2” value ([7]; Figure 6, 1 mM ATP and 3 mM MgCl2, single experiment)?
A: 10.9 pmol mg-1 protein

Q: And the “Bmax of [3H]-vinblastine binding, single representative experiment” value ([7]; Figure 6, control without ATP/MgCl2)?
A: 8.6 pmol mg-1 protein

Q: What about the “Bmax of [3H]-vinblastine binding (mean)” value ([7]; MES-Dx5 membranes) of the same compound?
A: 5.2 pmol mg-1 protein

Q: What about the “Bmax of [3H]-vinblastine binding (mean)” value ([7]; MES-Dx5 membranes, listed as [^3H]-vinblastine) of the same compound?
A: 5.2 ± 1.6 pmol mg-1 protein

Q: What does the source list for `COc1cc2c(cc1OC)CN(CCc1ccc(NC(=O)c3cccc4c(=O)c5cccc(OC)c5[nH]c34)cc1)CC2` [GF120918]?
A: Cytotoxic effect of GF120918 alone (MES-Dx5 cells [3]; MTT assay): did not produce a cytotoxic effect; EC50 (MES-Dx5 cells [8]; read-out: EC50 of GF120918 to reverse resistance (shifts sensitivity by 50%) to doxorubicin, cytotoxic doxorubicin): 21 ± 6 nM; EC50 (MES-Dx5 cells [8]; read-out: EC50 of GF120918 to reverse resistance (shifts sensitivity by 50%) to etoposide, cytotoxic etoposide): 7 ± 2 nM; EC50 (MES-Dx5 cells [8]; read-out: EC50 of GF120918 to reverse resistance (shifts sensitivity by 50%) to taxol, cytotoxic taxol): 91 ± 23 nM; EC50 (MES-Dx5 cells [8]; read-out: EC50 of GF120918 to reverse resistance (shifts sensitivity by 50%) to taxotere, cytotoxic taxotere): 57 ± 14 nM; EC50 (MES-Dx5 cells [8]; read-out: EC50 of GF120918 to reverse resistance (shifts sensitivity by 50%) to vinblastine, cytotoxic vinblastine): 19 ± 3 nM; Lowest concentration exhibiting a measurable reversal of resistance (MES-Dx5 cells [8]; MES-Dx5, MTT assay): […]; Extent of reversal of MES-Dx5 resistance, all tested cytotoxic drugs (MES-Dx5 cells [8]; to level of parental MES-SA cells): reversed resistance completely; also recorded: fully reverse resistance; Sensitization of xenograft-bearing mice to doxorubicin [9]: sensitized mice; Sensitization of COR-L23 R (MRP1, not P-gp) to doxorubicin (COR-L23 R): not sensitized; EC50 (P-gp [10]): […]; EC50 (MES-Dx5 cells [11]; read-out: [GF120918] reverses accumulation-deficit by 50%, [3H]-taxol): 37 nM; EC50 (MES-Dx5 cells [11]; read-out: [GF120918] reverses accumulation-deficit by 50%, [3H]-vinblastine): 48 nM; EC50 (MES-Dx5 cells [11]; read-out: [GF120918] reverses accumulation-deficit by 50%, [14C]-doxorubicin): 64 nM; Concentration at which activity was consistently achieved in vitro (P-gp [12]): […]; Effect on cellular content of radiolabelled cytotoxics in sensitive MES-SA cells (MES-SA cells [13]): did not increase

Q: Which “Accumulation deficit of MES-Dx5 relative to parental MES-SA cells” value (MES-Dx5 cells [11]) does the source give for `COc1cccc2c1C(=O)c1c(O)c3c(c(O)c1C2=O)C[C@@](O)(C(=O)CO)C[C@@H]3O[C@H]1C[C@H](N)[C@H](O)[C@H](C)O1` [[14 C]-doxorubicin] here?
A: 20%

Q: With `CC(=O)O[C@H]1C(=O)[C@@]2(C)[C@H]([C@H](OC(=O)c3ccccc3)[C@]3(O)C[C@H](OC(=O)[C@H](O)[C@@H](NC(=O)c4ccccc4)c4ccccc4)C(C)=C1C3(C)C)[C@]1(OC(C)=O)CO[C@@H]1C[C@@H]2O` [[3 H]-taxol] as the compound, how does the “Accumulation deficit of MES-Dx5 relative to parental MES-SA cells” value (MES-Dx5 cells [11]) read?
A: 20%

Q: With `CC[C@]1(O)C[C@@H]2CN(CCc3c([nH]c4ccccc34)[C@@](C(=O)OC)(c3cc4c(cc3OC)N(C)[C@H]3[C@@](O)(C(=O)OC)[C@H](OC(C)=O)[C@]5(CC)C=CCN6CC[C@]43[C@@H]65)C2)C1` [vinblastine] as the compound, how does the EC50 (MES-Dx5 cells [3]) read?
A: 30 nM

Q: What about the EC50 (MES-SA cells [4]) of the same compound?
A: 3 nM

Q: For `CC(=O)O[C@@]12CO[C@@H]1C[C@H](O)[C@@]1(C)C(=O)[C@H](O)C3=C(C)[C@@H](OC(=O)[C@H](O)[C@@H](NC(=O)OC(C)(C)C)c4ccccc4)C[C@@](O)([C@@H](OC(=O)c4ccccc4)[C@H]21)C3(C)C` [taxotere], which EC50 (MES-Dx5 cells [3]) is on record?
A: 93 nM

Q: And the “Resistance factor (RF) of MES-Dx5 relative to MES-SA cells” value (MES-Dx5 cells [3])?
A: 19 fold

Q: And the EC50 (MES-SA cells [4])?
A: 5 nM
